Measurements as given in publication PMC8880564, “Design, Synthesis, and Biological Evaluation of a Novel VEGFR-2 Inhibitor Based on a 1,2,5-Oxadiazole-2-Oxide Scaffold with MAPK Signaling Pathway Inhibition” (Pharmaceuticals, 2022).

Experiments:
Assay in all cases: NCI-60 one-dose SRB screening
Format in all cases: cell-based
[1] = system: BT-549; conditions: Homo sapiens, BT-549, Breast Cancer, 10 µM one dose, 48 h, read-out: growth percentage
[2] = system: CAKI-1; conditions: Homo sapiens, CAKI-1, Renal Cancer, 10 µM one dose, 48 h, read-out: growth percentage
[3] = system: COLO 205; conditions: Homo sapiens, COLO 205, Colon Cancer, 10 µM one dose, 48 h, read-out: growth percentage
[4] = system: HCC-2998; conditions: Homo sapiens, HCC-2998, Colon Cancer, 10 µM one dose, 48 h, read-out: growth percentage
[5] = system: HOP-62; conditions: Homo sapiens, HOP-62, Non-Small Cell Lung Cancer, 10 µM one dose, 48 h, read-out: growth percentage
[6] = system: M14; conditions: Homo sapiens, M14, Melanoma, 10 µM one dose, 48 h, read-out: growth percentage
[7] = system: MDA-MB-435; conditions: Homo sapiens, MDA-MB-435, Melanoma, 10 µM one dose, 48 h, read-out: growth percentage
[8] = system: MOLT-4; conditions: Homo sapiens, MOLT-4, Leukemia, 10 µM one dose, 48 h, read-out: growth percentage
[9] = system: NCI-H522; conditions: Homo sapiens, NCI-H522, Non-Small Cell Lung Cancer, 10 µM one dose, 48 h, read-out: growth percentage
[10] = system: NCI/ADR-RES; conditions: Homo sapiens, Ovarian Cancer, 10 µM one dose, 48 h, read-out: growth percentage
[11] = system: OVCAR-3; conditions: Homo sapiens, OVCAR-3, Ovarian Cancer, 10 µM one dose, 48 h, read-out: growth percentage
[12] = system: OVCAR-4; conditions: Homo sapiens, OVCAR-4, Ovarian Cancer, 10 µM one dose, 48 h, read-out: growth percentage
[13] = system: PC-3; conditions: Homo sapiens, PC-3, Prostate Cancer, 10 µM one dose, 48 h, read-out: growth percentage
[14] = system: RPMI-8226; conditions: Homo sapiens, RPMI-8226, Leukemia, 10 µM one dose, 48 h, read-out: growth percentage
[15] = system: SF-268; conditions: Homo sapiens, SF-268, CNS Cancer, 10 µM one dose, 48 h, read-out: growth percentage
[16] = system: SF-295; conditions: Homo sapiens, SF-295, CNS Cancer, 10 µM one dose, 48 h, read-out: growth percentage
[17] = system: SK-MEL-2; conditions: Homo sapiens, SK-MEL-2, Melanoma, 10 µM one dose, 48 h, read-out: growth percentage
[18] = system: SNB-19; conditions: Homo sapiens, SNB-19, CNS Cancer, 10 µM one dose, 48 h, read-out: growth percentage
[19] = system: SW-620; conditions: Homo sapiens, SW-620, Colon Cancer, 10 µM one dose, 48 h, read-out: growth percentage
[20] = system: U251; conditions: Homo sapiens, U-251, U251, CNS Cancer, 10 µM one dose, 48 h, read-out: growth percentage
[21] = system: UACC-257; conditions: Homo sapiens, UACC-257, Melanoma, 10 µM one dose, 48 h, read-out: growth percentage
[22] = system: UACC-62; conditions: Homo sapiens, UACC-62, Melanoma, 10 µM one dose, 48 h, read-out: growth percentage

SMILES	activity at 10 µM [1] [%]	activity at 10 µM [2] [%]	activity at 10 µM [3] [%]	activity at 10 µM [4] [%]	activity at 10 µM [5] [%]	activity at 10 µM [6] [%]	activity at 10 µM [7] [%]	activity at 10 µM [8] [%]	activity at 10 µM [9] [%]	activity at 10 µM [10] [%]	activity at 10 µM [11] [%]	activity at 10 µM [12] [%]	activity at 10 µM [13] [%]	activity at 10 µM [14] [%]	activity at 10 µM [15] [%]	activity at 10 µM [16] [%]	activity at 10 µM [17] [%]	activity at 10 µM [18] [%]	activity at 10 µM [19] [%]	activity at 10 µM [20] [%]	also measured
Cc1nc(Nc2ccc(OCc3c(-c4ccccc4)no[n+]3[O-])cc2)c2c(C)nn(-c3ccccc3)c2n1 [6d, 3-((4-((3,6-dimethyl-1-phenyl-1H-pyrazolo[3,4-d]pyrimidin-4-yl)amino)phenoxy)methyl)-4-phenyl-1,2,5-oxadiazole 2-oxide]	102	101	107	107	107	96.2	105	110	105	102	114	103	99	106	106	108	121	99.6	119	106	activity at 10 µM [21]: 109%; activity at 10 µM [22]: 89.6%
Cc1nc(Nc2ccc(OCc3c(-c4ccccc4)no[n+]3[O-])cc2)c2cnn(-c3ccc(Br)cc3)c2n1 [6f, 3-((4-((1-(4-bromophenyl)-6-methyl-1H-pyrazolo[3,4-d]pyrimidin-4-yl)amino)phenoxy)methyl)-4-phenyl-1,2,5-oxadiazole 2-oxide]	94.5	81.9	119	104	110	94.2	94.5	91.5	92.5	106	114	99.5	103	115	99.9	102	114	91.5	109	99	activity at 10 µM [21]: 101%; activity at 10 µM [22]: 84.8%
O=c1[nH]c(CNc2ccc(NCc3c(-c4ccccc4)no[n+]3[O-])cc2)nc2c1cnn2-c1ccccc1 [14a, 3-(((4-(((4-oxo-1-phenyl-4,5-dihydro-1H-pyrazolo[3,4-d]pyrimidin-6-yl)methyl)amino)phenyl)amino)methyl)-4-phenyl-1,2,5-oxadiazole 2-oxide]	62.1	55.1	101	84.4	105	80	70.7	44	60.8	79.4	73.5	94.5	63.3	61.9	73.5	71.8	77.8	94	92.8	76.1	activity at 10 µM [21]: 39%; activity at 10 µM [22]: 60.6%
Cc1nn(-c2ccccc2)c2ncnc(Nc3ccc(OCc4c(-c5ccccc5)no[n+]4[O-])cc3)c12 [6c, 3-((4-((3-methyl-1-phenyl-1H-pyrazolo[3,4-d]pyrimidin-4-yl)amino)phenoxy)methyl)-4-phenyl-1,2,5-oxadiazole 2-oxide]	101	86	116	106	105	90.3	93.4	92.9	84.8	91.7	105	90.6	83.5	94	96.5	99	103	101	107	97.2	activity at 10 µM [21]: 105%; activity at 10 µM [22]: 81.4%
Cc1nn(-c2ccccc2)c2nc(CNc3ccc(NCc4c(-c5ccccc5)no[n+]4[O-])cc3)[nH]c(=O)c12 [14b, 3-(((4-(((3-methyl-4-oxo-1-phenyl-4,5-dihydro-1H-pyrazolo[3,4-d]pyrimidin-6-yl)methyl)amino)phenyl)amino)methyl)-4-phenyl-1,2,5-oxadiazole 2-oxide]	95.9	67.1	116	111	110	106	91.6	61.5	80.9	92.4	87.6	102	77.7	79	84.9	103	100	101	110	94.6	activity at 10 µM [21]: 90.1%; activity at 10 µM [22]: 98.5%
Nc1ccc(NCc2c(-c3ccccc3)no[n+]2[O-])cc1 [compound 11, 3-(((4-aminophenyl)amino)methyl)-4-phenyl-1,2,5-oxadiazole 2-oxide]	103	108	121	118	136	102	90.2	91.8	93.5	104	111	118	95.1	97.5	101	117	105	110	115	102	activity at 10 µM [21]: 99.2%; activity at 10 µM [22]: 95.5%
Cc1nc(Nc2ccc(OCc3c(-c4ccccc4)no[n+]3[O-])cc2)c2cnn(-c3ccccc3)c2n1 [6b, 3-((4-((6-methyl-1-phenyl-1H-pyrazolo[3,4-d]pyrimidin-4-yl)amino)phenoxy)methyl)-4-phenyl-1,2,5-oxadiazole 2-oxide]	95	87.6	114	108	103	103	99.7	117	96.3	103	109	102	103	114	103	97.1	109	99.3	120	104	activity at 10 µM [21]: 101%; activity at 10 µM [22]: 88.4%
Cc1nn(-c2ccc(Br)cc2)c2ncnc(Nc3ccc(OCc4c(-c5ccccc5)no[n+]4[O-])cc3)c12 [6g, 3-((4-((1-(4-bromophenyl)-3-methyl-1H-pyrazolo[3,4-d]pyrimidin-4-yl)amino)phenoxy)methyl)-4-phenyl-1,2,5-oxadiazole 2-oxide]	104	84.9	117	104	94	94	101	97.7	92	93.8	112	95.7	90.9	108	104	87.6	101	99.2	107	102	activity at 10 µM [21]: 97.1%; activity at 10 µM [22]: 80.3%
